What was measured:
wheat = assay: Test Example 4: effect on crop by soil treatment (symbol e); format: in vivo; conditions: for e: wheat, effect on crop grade: application herbicide amount 320 g/ha
Outline: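 Crop seeds, among them rice, wheat, beet and rapeseed, were sown in sterilized diluvial soil and covered with about 1.5 cm of soil. Boxes were kept in a greenhouse at 25° C. to 30° C. for plant growth.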

Stellaria media = assay: Test Example 4: herbicidal effect by soil treatment (symbol P); format: in vivo
Outline: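 Seeds were sown in sterilized diluvial soil, covered with about 1.5 cm of soil, and the soil surface was sprayed with a water-diluted emulsion of the compound at a predetermined rate. Plants grew in a greenhouse at 25° C. to 30° C.; effects were scored visually 3 weeks after application.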

[1] = application herbicide amount 320 g/ha

Compound | melting point [°C] | e: wheat, effect on crop grade (wheat) | P: Stellaria media, herbicidal effect grade (Stellaria media; [1]) | e: wheat, effect grade on crop (wheat; 320 g/ha) | P: Stellaria media, herbicidal effect grade (Stellaria media; 320 g/ha)
CCc1cc(Br)cc(C)c1C1=C(O)CC(CC(C)=NOC)C1=O (centres unmarked) [6-001] | 151 to 153 | 5 (Herbicidal ratio of 90% or more (almost completely withered)) | 0 (Herbicidal ratio of 5% or lower (almost no effect)) |  | 
CCc1cc(Br)cc(C)c1C1=C(O)CC(C(C(=O)OC)C(C)=NOC)C1=O (centres unmarked) [6-002] | 184 to 188 | 0 (Herbicidal ratio of 5% or lower (almost no effect)) | 0 (Herbicidal ratio of 5% or lower (almost no effect)) |  | 
CON=C(C)CC1CC(O)=C(c2c(C)cc(Br)cc2C)C1=O (centres unmarked) [6-003] | 164 to 166 | 0 (Herbicidal ratio of 5% or lower (almost no effect)) | 0 (Herbicidal ratio of 5% or lower (almost no effect)) |  | 
CON=C(C)CC1CC(OC(=O)c2ccc(C(F)(F)F)cc2)=C(c2c(C)cc(C)cc2C)C1=O (centres unmarked) [1-149] |  |  |  | 5 (Herbicidal ratio of 90% or more (almost completely withered)) | 0 (Herbicidal ratio of 5% or lower (almost no effect))

Continued, in another order:

melting point [°C] | Compound | e: wheat, effect on crop grade (wheat) | P: Stellaria media, herbicidal effect grade (Stellaria media; [1]) | e: wheat, effect grade on crop (wheat; 320 g/ha) | P: Stellaria media, herbicidal effect grade (Stellaria media; 320 g/ha)
167 to 169 | CON=C(C)CC1CC(O)=C(c2c(C)cc(-c3ccccc3)cc2C)C1=O (centres unmarked) [6-015] | 0 (Herbicidal ratio of 5% or lower (almost no effect)) | 2 (Herbicidal ratio of 20% or higher and lower than 40%) |  | 
122 to 125 | CCc1cc(C)cc(C)c1C1=C(O)CC(CC(C)=NOC)C1=O (centres unmarked) [6-007] | 5 (Herbicidal ratio of 90% or more (almost completely withered)) | 0 (Herbicidal ratio of 5% or lower (almost no effect)) |  | 
165 to 172 | CON=C(C)CC1CC(O)=C(c2c(C)cc(OCC(F)(F)F)cc2C)C1=O (centres unmarked) [6-049] | 5 (Herbicidal ratio of 90% or more (almost completely withered)) | 4 (Herbicidal ratio of 70% or higher and lower than 90%) |  | 
